What was measured:
[1] = target: cloned human NR1/NR2B ion channels (Homo sapiens (Human), UniProt Q05586+Q13224); assay: HNR2BC: calcium influx assay on cloned human NR1/NR2B ion channels expressed in HEK cells; type: cell-based; conditions: HEK cells hNR1/NR2B, 100 μM glutamate + 100 μM glycine, 3 parameter plot
Protocol: HNR2BC: Effects of Test Articles on Cloned Human NR1/NR2B Ion Channels Expressed in Mammalian Cells
The ability of test compounds to act as an antagonist of NR1/NR2B were evaluated with a calcium influx assay (Calcium 5 Assay Kit, Molecular Devices).
For the antagonist assessment, NR1/NR2B was activated with the positive control agonist (Mg^2+-free HBPS+100 μM glutamic acid+100 μM glycine). The effect of each test article to inhibit the signal was examined after agonist stimulation and compared to the positive control antagonist (MK-801).
A HEK cell line, stable transfected with hNR1/NR2B was used. This tetracycline inducible cell line is transfected with GRIN1 (GeneBank accession number NM 007327.2) and GRIN2B (GeneBank accession number NM_000834.3.). The cells were cultured in cell culture flasks with DMEM/F12 supplemented with 10% FCS, 1% PenStrep and a selection of additional antibiotics.
Forty-Eight (48) hours before the assay the cells were plated into 96-well black well, flat clear bottom microtiter plates at a density of 50000 cells/well. Twenty-Four (24) hours later the receptor expression was induced by the addition of 1 μg/ml tetracycline in the presence of 2 mM ketamine and 200 μM 7-CKA. After 24 h of receptor induction the plates were used for the assay.
The medium was removed and the cells were loaded with 200 μl loading buffer (Molecular Devices) in Mg2+-free HBPS containing 100 μM 7-CKA at 37° C. for one (1) hour.
The test compounds were then solubilized in 100% DMSO and diluted to yield eight (8) different concentrations in 100% DMSO. A 96 well drug plate was prepared by diluting with water and glycine/glutamate to a 5-fold of final test concentration. Fluorescence intensity of the cells in the plate was measured in a FlexStation using an excitation wavelength of 485 nm and an emission wavelength of 525 nm. Twenty (20) seconds after starting the recordings the compounds together with the agonists glycine (100 μM) and glutamate (100 μM) were added into the wells and the fluorescence measured for ninety (90) seconds in summary.
The IC50 values provided in the paragraph below were determined using a 3 parameter plot.

hERG-receptor = hERG-receptor (Homo sapiens (Human), UniProt Q12809); assay: HERGBD: inhibition of specific 3H-Dofetilide binding to the hERG-receptor; conditions: HEK cell membranes with human ERG, Hill-plot 2-parameter-model
Outline: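 Membranes from HEK cells stably expressing human ERG incubated 90 min at RT with 1.5 nmol/l 3H-dofetilide in 20 mM HEPES/0.1 mM KCl pH 7.2, inhibitor in 1% DMSO. Nonspecific binding with […] dofetilide; bound ligand separated by filtration and scintillation counted.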

rat NR1/NR2B receptor = rat NR1/NR2B receptor (Rattus norvegicus (Rat), UniProt P35439+Q00960); assay: RRNR2BB: inhibition of specific binding to the rat NR1/NR2B receptor; conditions: [3H]-Ifenprodil binding, rat brain membranes, Hill-plot 2-parameter-model
Outline: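 Washed membranes from male Wistar rat forebrain (whole brain minus cerebellum) in 5 mM Tris/1 mM EDTA pH 7.4 used in ifenprodil-site binding, 60 min at 4° C. Nonspecific binding defined with […] CP101.606; bound separated by filtration on PEI-soaked filters. IC50 from Hill plot, 2-parameter model.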

Chain of cloned human NR1/NR2B ion channels (Q13224 27-1484, other chains not shown): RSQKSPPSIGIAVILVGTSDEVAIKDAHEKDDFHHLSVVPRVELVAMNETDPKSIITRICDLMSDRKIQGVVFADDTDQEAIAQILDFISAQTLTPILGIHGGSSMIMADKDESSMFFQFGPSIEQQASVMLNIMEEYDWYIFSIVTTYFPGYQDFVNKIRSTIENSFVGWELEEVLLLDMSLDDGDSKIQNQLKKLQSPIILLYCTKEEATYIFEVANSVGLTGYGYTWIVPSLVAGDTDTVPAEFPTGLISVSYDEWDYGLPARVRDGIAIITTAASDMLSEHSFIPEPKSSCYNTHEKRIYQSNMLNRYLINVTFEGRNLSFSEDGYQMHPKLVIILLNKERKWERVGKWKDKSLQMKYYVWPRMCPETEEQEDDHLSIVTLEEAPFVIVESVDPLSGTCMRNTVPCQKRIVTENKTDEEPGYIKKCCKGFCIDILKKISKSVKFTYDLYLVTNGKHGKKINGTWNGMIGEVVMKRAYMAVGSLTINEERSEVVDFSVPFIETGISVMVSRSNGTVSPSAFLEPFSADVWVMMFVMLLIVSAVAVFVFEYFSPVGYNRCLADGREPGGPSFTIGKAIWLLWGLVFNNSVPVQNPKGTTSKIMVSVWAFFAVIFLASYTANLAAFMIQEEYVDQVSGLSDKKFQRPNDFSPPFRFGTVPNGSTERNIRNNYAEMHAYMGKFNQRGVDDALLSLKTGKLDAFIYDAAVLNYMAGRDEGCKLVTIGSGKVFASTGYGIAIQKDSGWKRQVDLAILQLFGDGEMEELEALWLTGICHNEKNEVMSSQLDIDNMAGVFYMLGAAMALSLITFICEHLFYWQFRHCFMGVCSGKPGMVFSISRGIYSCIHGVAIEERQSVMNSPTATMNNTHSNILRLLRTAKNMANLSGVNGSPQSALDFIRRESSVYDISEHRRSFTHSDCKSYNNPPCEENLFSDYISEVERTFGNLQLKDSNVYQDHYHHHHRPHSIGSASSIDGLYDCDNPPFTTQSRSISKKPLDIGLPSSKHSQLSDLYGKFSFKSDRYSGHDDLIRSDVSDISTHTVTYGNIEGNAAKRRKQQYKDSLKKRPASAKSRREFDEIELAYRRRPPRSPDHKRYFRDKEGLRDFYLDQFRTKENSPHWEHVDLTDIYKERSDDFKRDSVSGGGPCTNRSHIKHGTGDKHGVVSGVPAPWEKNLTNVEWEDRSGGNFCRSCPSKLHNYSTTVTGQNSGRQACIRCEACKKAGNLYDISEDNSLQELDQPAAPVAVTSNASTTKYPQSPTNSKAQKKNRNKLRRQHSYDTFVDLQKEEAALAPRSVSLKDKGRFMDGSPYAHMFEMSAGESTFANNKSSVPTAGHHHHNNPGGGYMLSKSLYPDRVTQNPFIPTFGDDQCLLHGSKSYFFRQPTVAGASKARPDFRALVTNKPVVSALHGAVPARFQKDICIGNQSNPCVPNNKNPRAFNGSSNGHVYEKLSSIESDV
Chain of rat NR1/NR2B receptor (Q00960 27-1482, other chains not shown): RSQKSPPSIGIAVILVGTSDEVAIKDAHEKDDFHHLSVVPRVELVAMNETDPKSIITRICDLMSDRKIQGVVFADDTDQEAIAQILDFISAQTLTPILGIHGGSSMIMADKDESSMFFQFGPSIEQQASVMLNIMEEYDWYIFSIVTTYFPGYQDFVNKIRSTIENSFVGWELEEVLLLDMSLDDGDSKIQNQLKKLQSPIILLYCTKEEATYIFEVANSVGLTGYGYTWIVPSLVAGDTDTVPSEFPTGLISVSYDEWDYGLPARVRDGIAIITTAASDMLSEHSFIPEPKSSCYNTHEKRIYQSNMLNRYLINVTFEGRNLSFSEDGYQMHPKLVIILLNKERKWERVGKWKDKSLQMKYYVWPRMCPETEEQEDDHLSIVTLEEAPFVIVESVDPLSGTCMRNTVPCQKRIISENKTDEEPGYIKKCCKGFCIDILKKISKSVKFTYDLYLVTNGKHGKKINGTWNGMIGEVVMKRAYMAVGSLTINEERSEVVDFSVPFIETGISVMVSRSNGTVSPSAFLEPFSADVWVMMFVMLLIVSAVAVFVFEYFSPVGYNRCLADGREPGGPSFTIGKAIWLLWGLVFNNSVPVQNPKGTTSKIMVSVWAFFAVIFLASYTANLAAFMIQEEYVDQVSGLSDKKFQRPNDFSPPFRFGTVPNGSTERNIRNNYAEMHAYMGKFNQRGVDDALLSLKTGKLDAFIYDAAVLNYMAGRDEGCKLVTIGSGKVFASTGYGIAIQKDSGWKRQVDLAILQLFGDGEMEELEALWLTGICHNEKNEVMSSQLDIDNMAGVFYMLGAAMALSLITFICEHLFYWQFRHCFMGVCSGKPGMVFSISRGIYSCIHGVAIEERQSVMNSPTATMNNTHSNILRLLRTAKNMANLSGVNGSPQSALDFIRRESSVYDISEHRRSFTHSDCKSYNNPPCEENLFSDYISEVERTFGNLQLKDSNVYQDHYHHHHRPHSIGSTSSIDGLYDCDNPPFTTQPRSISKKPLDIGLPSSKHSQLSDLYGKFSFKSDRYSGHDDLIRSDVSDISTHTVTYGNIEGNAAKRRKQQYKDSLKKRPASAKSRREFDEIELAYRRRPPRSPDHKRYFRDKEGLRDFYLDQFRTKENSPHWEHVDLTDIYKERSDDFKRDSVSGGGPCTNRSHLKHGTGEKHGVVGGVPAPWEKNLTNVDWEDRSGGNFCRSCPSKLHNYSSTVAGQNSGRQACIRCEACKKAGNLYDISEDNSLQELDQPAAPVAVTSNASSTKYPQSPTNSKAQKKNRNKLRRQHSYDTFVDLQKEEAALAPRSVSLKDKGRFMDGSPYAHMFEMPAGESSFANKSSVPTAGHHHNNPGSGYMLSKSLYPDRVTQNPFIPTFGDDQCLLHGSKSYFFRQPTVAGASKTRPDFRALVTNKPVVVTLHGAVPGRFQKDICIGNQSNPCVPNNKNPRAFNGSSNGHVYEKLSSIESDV
Chain of hERG-receptor (Q12809 whole entry): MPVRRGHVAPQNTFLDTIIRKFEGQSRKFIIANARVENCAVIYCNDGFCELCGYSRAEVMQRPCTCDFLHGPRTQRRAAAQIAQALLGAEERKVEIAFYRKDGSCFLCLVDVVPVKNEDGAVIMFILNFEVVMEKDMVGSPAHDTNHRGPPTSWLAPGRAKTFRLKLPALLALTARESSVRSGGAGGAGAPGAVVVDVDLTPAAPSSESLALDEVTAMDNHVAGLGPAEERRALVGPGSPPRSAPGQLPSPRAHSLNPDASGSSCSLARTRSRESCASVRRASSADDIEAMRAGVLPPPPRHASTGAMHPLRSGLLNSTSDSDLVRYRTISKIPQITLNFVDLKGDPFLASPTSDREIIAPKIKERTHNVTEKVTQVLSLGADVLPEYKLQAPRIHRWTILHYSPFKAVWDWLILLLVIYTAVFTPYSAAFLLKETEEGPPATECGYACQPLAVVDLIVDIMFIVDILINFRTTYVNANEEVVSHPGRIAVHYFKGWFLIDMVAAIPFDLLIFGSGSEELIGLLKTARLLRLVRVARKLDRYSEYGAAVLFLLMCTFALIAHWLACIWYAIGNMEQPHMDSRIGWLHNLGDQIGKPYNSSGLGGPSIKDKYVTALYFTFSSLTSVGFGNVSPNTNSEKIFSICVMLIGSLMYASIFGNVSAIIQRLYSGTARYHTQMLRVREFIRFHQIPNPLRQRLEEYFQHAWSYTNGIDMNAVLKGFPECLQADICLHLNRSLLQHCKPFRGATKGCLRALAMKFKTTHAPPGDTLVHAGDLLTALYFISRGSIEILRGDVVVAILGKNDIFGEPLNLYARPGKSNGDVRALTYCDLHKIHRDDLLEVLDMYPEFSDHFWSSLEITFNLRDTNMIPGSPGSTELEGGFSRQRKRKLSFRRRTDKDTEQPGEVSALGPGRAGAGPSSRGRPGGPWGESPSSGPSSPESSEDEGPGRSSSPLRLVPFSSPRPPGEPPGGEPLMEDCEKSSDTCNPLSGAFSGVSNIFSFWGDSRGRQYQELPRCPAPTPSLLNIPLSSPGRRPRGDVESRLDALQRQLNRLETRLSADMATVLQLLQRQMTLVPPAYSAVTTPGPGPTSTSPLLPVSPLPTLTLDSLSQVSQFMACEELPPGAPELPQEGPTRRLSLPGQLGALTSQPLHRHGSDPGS

| Structure (SMILES) | IC50 [1] [µM] | IC50 (hERG-receptor) [µM] | IC50 (rat NR1/NR2B receptor) [µM] |
| --- | --- | --- | --- |
| Fc1ccc(-n2cc(Cc3cc[nH]n3)nn2)cc1C(F)F [Example 115, 1-(3-difluoromethyl-4-fluoro-phenyl)-4-(1H-pyrazol-3-ylmethyl)-1H-[1,2,3]triazole] | 10.5 | – | – |
| CC(C)c1nccn1Cc1cn(-c2ccc(Cl)c(OC(F)F)c2)nn1 [Example 97, 1-(4-Chloro-3-difluoromethoxy-phenyl)-4-(2-isopropyl-imidazol-1-ylmethyl)-1H-[1,2,3]triazole] | 0.58 | – | – |
| CCc1nccn1Cc1cn(-c2ccc(F)c(Cl)c2)nn1 [Example 42, 1-(3-Chloro-4-fluoro-phenyl)-4-(2-ethyl-imidazol-1-ylmethyl)-1H-[1,2,3]triazole] | 3.17 | – | – |
| Nc1nccn1Cc1cn(-c2cc(F)cc(C(F)F)c2)nn1 [Example 111, 4-(2-amino-imidazol-1-ylmethyl)-1-(3-fluoro-5-difluoromethyl-phenyl)-1H-[1,2,3]triazole] | 3.42 | 3.29 | – |
| Cc1ccc(C(=O)c2nccn2Cc2cn(-c3ccc(Cl)cc3)nn2)cc1 [Example 116, [1-[[1-(4-chlorophenyl)triazol-4-yl]methyl]imidazol-2-yl]-(p-tolyl)methanone] | 22.4 | – | > 5 |
